{"source": "the NIST ThermoML archive (doi:10.1021/acs.jced.8b00201)", "experiment": "xn = mol fraction of the nth substance listed", "conditions": "100 kPa, Liquid; for viscosity: Concentric cylinders viscometry; for mass density: Vibrating tube method", "note": "Numbers after ± are expanded uncertainties.", "data": [{"smiles": "CCCCCCCO", "note": "[heptan-1-ol] + O=C1CCCCC1", "values": [{"measurement": "viscosity", "setting": "293.15 K, x2 = 0", "value": "7.03 ± 0.35", "unit": "mPa·s"}, {"measurement": "viscosity", "setting": "293.15 K, x2 = 0.0809", "value": "6.06 ± 0.31", "unit": "mPa·s"}, {"measurement": "viscosity", "setting": "293.15 K, x2 = 0.1601", "value": "5.23 ± 0.26", "unit": "mPa·s"}, {"measurement": "viscosity", "setting": "293.15 K, x2 = 0.2406", "value": "4.49 ± 0.23", "unit": "mPa·s"}, {"measurement": "viscosity", "setting": "293.15 K, x2 = 0.3511", "value": "3.68 ± 0.19", "unit": "mPa·s"}, {"measurement": "viscosity", "setting": "293.15 K, x2 = 0.4227", "value": "3.27 ± 0.16", "unit": "mPa·s"}, {"measurement": "viscosity", "setting": "293.15 K, x2 = 0.5754", "value": "2.71 ± 0.14", "unit": "mPa·s"}, {"measurement": "viscosity", "setting": "293.15 K, x2 = 0.6492", "value": "2.59 ± 0.13", "unit": "mPa·s"}, {"measurement": "viscosity", "setting": "293.15 K, x2 = 0.7422", "value": "2.46 ± 0.12", "unit": "mPa·s"}, {"measurement": "viscosity", "setting": "293.15 K, x2 = 0.8513", "value": "2.38 ± 0.12", "unit": "mPa·s"}, {"measurement": "viscosity", "setting": "293.15 K, x2 = 0.9385", "value": "2.35 ± 0.12", "unit": "mPa·s"}, {"measurement": "mass density", "setting": "293.15 K, x2 = 0", "value": "822.2 ± 20", "unit": "kg/m3"}, {"measurement": "mass density", "setting": "293.15 K, x2 = 0.0809", "value": "829.7 ± 20", "unit": "kg/m3"}, {"measurement": "mass density", "setting": "293.15 K, x2 = 0.1601", "value": "837.3 ± 20", "unit": "kg/m3"}, {"measurement": "mass density", "setting": "293.15 K, x2 = 0.2406", "value": "845.4 ± 20", "unit": "kg/m3"}, {"measurement": "mass density", "setting": "293.15 K, x2 = 0.3511", "value": "857.4 ± 20", "unit": "kg/m3"}, {"measurement": "mass density", "setting": "293.15 K, x2 = 0.4227", "value": "865.6 ± 20", "unit": "kg/m3"}, {"measurement": "mass density", "setting": "293.15 K, x2 = 0.5754", "value": "884.4 ± 20", "unit": "kg/m3"}, {"measurement": "mass density", "setting": "293.15 K, x2 = 0.6492", "value": "894.2 ± 20", "unit": "kg/m3"}, {"measurement": "mass density", "setting": "293.15 K, x2 = 0.7422", "value": "907.3 ± 20", "unit": "kg/m3"}, {"measurement": "mass density", "setting": "293.15 K, x2 = 0.8513", "value": "923.9 ± 20", "unit": "kg/m3"}, {"measurement": "mass density", "setting": "293.15 K, x2 = 0.9385", "value": "938.2 ± 20", "unit": "kg/m3"}, {"measurement": "viscosity", "setting": "298.15 K, x2 = 0", "value": "5.92 ± 0.3", "unit": "mPa·s"}, {"measurement": "viscosity", "setting": "298.15 K, x2 = 0.0809", "value": "5.15 ± 0.26", "unit": "mPa·s"}, {"measurement": "viscosity", "setting": "298.15 K, x2 = 0.1601", "value": "4.46 ± 0.22", "unit": "mPa·s"}, {"measurement": "viscosity", "setting": "298.15 K, x2 = 0.2406", "value": "3.89 ± 0.2", "unit": "mPa·s"}, {"measurement": "viscosity", "setting": "298.15 K, x2 = 0.3511", "value": "3.22 ± 0.16", "unit": "mPa·s"}, {"measurement": "viscosity", "setting": "298.15 K, x2 = 0.4227", "value": "2.83 ± 0.14", "unit": "mPa·s"}, {"measurement": "viscosity", "setting": "298.15 K, x2 = 0.5754", "value": "2.39 ± 0.12", "unit": "mPa·s"}, {"measurement": "viscosity", "setting": "298.15 K, x2 = 0.6492", "value": "2.29 ± 0.12", "unit": "mPa·s"}, {"measurement": "viscosity", "setting": "298.15 K, x2 = 0.7422", "value": "2.19 ± 0.11", "unit": "mPa·s"}, {"measurement": "viscosity", "setting": "298.15 K, x2 = 0.8513", "value": "2.12 ± 0.11", "unit": "mPa·s"}, {"measurement": "viscosity", "setting": "298.15 K, x2 = 0.9385", "value": "2.09 ± 0.11", "unit": "mPa·s"}, {"measurement": "mass density", "setting": "298.15 K, x2 = 0", "value": "818.7 ± 20", "unit": "kg/m3"}, {"measurement": "mass density", "setting": "298.15 K, x2 = 0.0809", "value": "826 ± 20", "unit": "kg/m3"}, {"measurement": "mass density", "setting": "298.15 K, x2 = 0.1601", "value": "833.5 ± 20", "unit": "kg/m3"}, {"measurement": "mass density", "setting": "298.15 K, x2 = 0.2406", "value": "841.4 ± 20", "unit": "kg/m3"}, {"measurement": "mass density", "setting": "298.15 K, x2 = 0.3511", "value": "853.1 ± 20", "unit": "kg/m3"}, {"measurement": "mass density", "setting": "298.15 K, x2 = 0.4227", "value": "861.2 ± 20", "unit": "kg/m3"}, {"measurement": "mass density", "setting": "298.15 K, x2 = 0.5754", "value": "879.6 ± 20", "unit": "kg/m3"}, {"measurement": "mass density", "setting": "298.15 K, x2 = 0.6492", "value": "889.3 ± 20", "unit": "kg/m3"}, {"measurement": "mass density", "setting": "298.15 K, x2 = 0.7422", "value": "902.2 ± 20", "unit": "kg/m3"}, {"measurement": "mass density", "setting": "298.15 K, x2 = 0.8513", "value": "918.5 ± 20", "unit": "kg/m3"}, {"measurement": "mass density", "setting": "298.15 K, x2 = 0.9385", "value": "932.6 ± 20", "unit": "kg/m3"}, {"measurement": "viscosity", "setting": "303.15 K, x2 = 0", "value": "5.03 ± 0.25", "unit": "mPa·s"}, {"measurement": "viscosity", "setting": "303.15 K, x2 = 0.0809", "value": "4.41 ± 0.22", "unit": "mPa·s"}, {"measurement": "viscosity", "setting": "303.15 K, x2 = 0.1601", "value": "3.86 ± 0.19", "unit": "mPa·s"}, {"measurement": "viscosity", "setting": "303.15 K, x2 = 0.2406", "value": "3.37 ± 0.17", "unit": "mPa·s"}, {"measurement": "viscosity", "setting": "303.15 K, x2 = 0.3511", "value": "2.82 ± 0.14", "unit": "mPa·s"}, {"measurement": "viscosity", "setting": "303.15 K, x2 = 0.4227", "value": "2.51 ± 0.13", "unit": "mPa·s"}, {"measurement": "viscosity", "setting": "303.15 K, x2 = 0.5754", "value": "2.11 ± 0.11", "unit": "mPa·s"}, {"measurement": "viscosity", "setting": "303.15 K, x2 = 0.6492", "value": "2.04 ± 0.1", "unit": "mPa·s"}, {"measurement": "viscosity", "setting": "303.15 K, x2 = 0.7422", "value": "1.97 ± 0.1", "unit": "mPa·s"}, {"measurement": "viscosity", "setting": "303.15 K, x2 = 0.8513", "value": "1.94 ± 0.1", "unit": "mPa·s"}, {"measurement": "viscosity", "setting": "303.15 K, x2 = 0.9385", "value": "1.93 ± 0.1", "unit": "mPa·s"}, {"measurement": "mass density", "setting": "303.15 K, x2 = 0", "value": "815.2 ± 20", "unit": "kg/m3"}, {"measurement": "mass density", "setting": "303.15 K, x2 = 0.0809", "value": "822.3 ± 20", "unit": "kg/m3"}, {"measurement": "mass density", "setting": "303.15 K, x2 = 0.1601", "value": "829.7 ± 20", "unit": "kg/m3"}, {"measurement": "mass density", "setting": "303.15 K, x2 = 0.2406", "value": "837.5 ± 20", "unit": "kg/m3"}, {"measurement": "mass density", "setting": "303.15 K, x2 = 0.3511", "value": "849 ± 20", "unit": "kg/m3"}, {"measurement": "mass density", "setting": "303.15 K, x2 = 0.4227", "value": "857 ± 20", "unit": "kg/m3"}, {"measurement": "mass density", "setting": "303.15 K, x2 = 0.5754", "value": "875.2 ± 20", "unit": "kg/m3"}, {"measurement": "mass density", "setting": "303.15 K, x2 = 0.6492", "value": "884.8 ± 20", "unit": "kg/m3"}, {"measurement": "mass density", "setting": "303.15 K, x2 = 0.7422", "value": "897.6 ± 20", "unit": "kg/m3"}, {"measurement": "mass density", "setting": "303.15 K, x2 = 0.8513", "value": "913.8 ± 20", "unit": "kg/m3"}, {"measurement": "mass density", "setting": "303.15 K, x2 = 0.9385", "value": "927.7 ± 20", "unit": "kg/m3"}, {"measurement": "viscosity", "setting": "308.15 K, x2 = 0", "value": "4.3 ± 0.22", "unit": "mPa·s"}, {"measurement": "viscosity", "setting": "308.15 K, x2 = 0.0809", "value": "3.78 ± 0.19", "unit": "mPa·s"}, {"measurement": "viscosity", "setting": "308.15 K, x2 = 0.1601", "value": "3.32 ± 0.17", "unit": "mPa·s"}, {"measurement": "viscosity", "setting": "308.15 K, x2 = 0.2406", "value": "2.93 ± 0.15", "unit": "mPa·s"}, {"measurement": "viscosity", "setting": "308.15 K, x2 = 0.3511", "value": "2.49 ± 0.13", "unit": "mPa·s"}, {"measurement": "viscosity", "setting": "308.15 K, x2 = 0.4227", "value": "2.26 ± 0.11", "unit": "mPa·s"}, {"measurement": "viscosity", "setting": "308.15 K, x2 = 0.5754", "value": "1.93 ± 0.1", "unit": "mPa·s"}, {"measurement": "viscosity", "setting": "308.15 K, x2 = 0.6492", "value": "1.85 ± 0.09", "unit": "mPa·s"}, {"measurement": "viscosity", "setting": "308.15 K, x2 = 0.7422", "value": "1.78 ± 0.09", "unit": "mPa·s"}, {"measurement": "viscosity", "setting": "308.15 K, x2 = 0.8513", "value": "1.75 ± 0.09", "unit": "mPa·s"}, {"measurement": "viscosity", "setting": "308.15 K, x2 = 0.9385", "value": "1.76 ± 0.09", "unit": "mPa·s"}]}]}
